Molecular target: T1, DNA repair protein RAD51 homolog 1 (Homo sapiens, UniProt Q06609)
T1 sequence (Q06609 whole entry): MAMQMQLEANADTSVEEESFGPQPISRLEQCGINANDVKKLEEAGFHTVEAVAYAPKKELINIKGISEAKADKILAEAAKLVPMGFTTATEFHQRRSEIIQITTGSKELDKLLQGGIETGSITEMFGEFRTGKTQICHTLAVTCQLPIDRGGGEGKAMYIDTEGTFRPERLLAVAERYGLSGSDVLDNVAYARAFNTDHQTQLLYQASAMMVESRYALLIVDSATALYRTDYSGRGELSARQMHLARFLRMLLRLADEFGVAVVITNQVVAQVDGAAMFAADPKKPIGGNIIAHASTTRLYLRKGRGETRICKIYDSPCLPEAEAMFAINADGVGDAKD
Assay: concentration-dependent blocking of RAD51 activity – biochemical, homologous recombination, fluorescence, dose response (AID 1435)

IC50 (inactive by the depositor's call) [µM] | IC50 [µM] | SMILES
42.5 | – | CCCCC(Nc1ncnc2ccccc12)C(=O)O (configuration not stated) [2-(4-quinazolinylamino)hexanoic acid]
– | > 85 | CCOC(=O)C(NC(C)=O)(Nc1ccc(S(=O)(=O)Nc2cc(C)on2)cc1)C(F)(F)F (configuration not stated)

Source: BindingDB's records for doi:10.7270/Q2BV7F1T (Pcmd, 2008)
